Reference: ChEMBL document CHEMBL5380794, “Discovery of a Potent and Selective STAT5 PROTAC Degrader with Strong Antitumor Activity In Vivo in Acute Myeloid Leukemia” (J Med Chem, 2023)
Calls of active or inactive are those of the source. The rule behind the calls is not given here.

Tests used:
[1] = target: T1, Signal transducer and activator of transcription 5B (Homo sapiens, UniProt P51692); test: Binding affinity to STAT5B (unknown origin) assessed as inhibition constant by FP assay
T1 sequence (P51692 whole entry): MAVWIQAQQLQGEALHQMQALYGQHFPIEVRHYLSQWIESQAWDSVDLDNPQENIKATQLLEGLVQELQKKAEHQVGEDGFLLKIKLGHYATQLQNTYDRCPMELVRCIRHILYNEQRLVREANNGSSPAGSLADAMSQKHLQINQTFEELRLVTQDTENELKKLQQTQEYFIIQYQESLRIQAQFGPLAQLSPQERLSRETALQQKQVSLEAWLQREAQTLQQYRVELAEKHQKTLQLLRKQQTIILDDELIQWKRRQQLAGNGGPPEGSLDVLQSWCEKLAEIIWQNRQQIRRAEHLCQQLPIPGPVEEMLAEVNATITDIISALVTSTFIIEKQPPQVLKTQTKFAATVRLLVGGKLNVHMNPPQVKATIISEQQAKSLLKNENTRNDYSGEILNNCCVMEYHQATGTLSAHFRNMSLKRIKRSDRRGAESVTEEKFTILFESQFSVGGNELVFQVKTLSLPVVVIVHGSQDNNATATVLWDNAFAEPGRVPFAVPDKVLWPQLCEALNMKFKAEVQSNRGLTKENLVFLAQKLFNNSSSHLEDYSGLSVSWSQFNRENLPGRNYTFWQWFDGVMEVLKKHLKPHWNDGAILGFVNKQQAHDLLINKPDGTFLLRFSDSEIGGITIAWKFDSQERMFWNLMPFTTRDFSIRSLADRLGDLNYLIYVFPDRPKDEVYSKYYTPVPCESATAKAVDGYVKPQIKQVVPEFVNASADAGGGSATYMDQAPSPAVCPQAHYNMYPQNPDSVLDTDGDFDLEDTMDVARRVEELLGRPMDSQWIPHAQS

[2] = test system: MV4-11; test: Effect on STAT6 level in human MV4-11 cells upto 5 uM measured for 18 hrs by Western blot analysis; assay type: functional, cell-based
[3] = test system: SKNO-1; test: Effect on STAT4 level in human SKNO-1 cells upto 5 uM measured for 18 hrs by Western blot analysis; assay type: functional, cell-based
[4] = target: T2, Signal transducer and activator of transcription 5A (Homo sapiens) (UniProt P42229); test: Inhibition of STAT5 phosphorylation in human MV4-11 cells assessed as reduction in […] phosphorylation at Y694 residue at 0.2 uM measured for 6 hrs by Western blot analysis; assay type: cell-based
T2 sequence (whole entry): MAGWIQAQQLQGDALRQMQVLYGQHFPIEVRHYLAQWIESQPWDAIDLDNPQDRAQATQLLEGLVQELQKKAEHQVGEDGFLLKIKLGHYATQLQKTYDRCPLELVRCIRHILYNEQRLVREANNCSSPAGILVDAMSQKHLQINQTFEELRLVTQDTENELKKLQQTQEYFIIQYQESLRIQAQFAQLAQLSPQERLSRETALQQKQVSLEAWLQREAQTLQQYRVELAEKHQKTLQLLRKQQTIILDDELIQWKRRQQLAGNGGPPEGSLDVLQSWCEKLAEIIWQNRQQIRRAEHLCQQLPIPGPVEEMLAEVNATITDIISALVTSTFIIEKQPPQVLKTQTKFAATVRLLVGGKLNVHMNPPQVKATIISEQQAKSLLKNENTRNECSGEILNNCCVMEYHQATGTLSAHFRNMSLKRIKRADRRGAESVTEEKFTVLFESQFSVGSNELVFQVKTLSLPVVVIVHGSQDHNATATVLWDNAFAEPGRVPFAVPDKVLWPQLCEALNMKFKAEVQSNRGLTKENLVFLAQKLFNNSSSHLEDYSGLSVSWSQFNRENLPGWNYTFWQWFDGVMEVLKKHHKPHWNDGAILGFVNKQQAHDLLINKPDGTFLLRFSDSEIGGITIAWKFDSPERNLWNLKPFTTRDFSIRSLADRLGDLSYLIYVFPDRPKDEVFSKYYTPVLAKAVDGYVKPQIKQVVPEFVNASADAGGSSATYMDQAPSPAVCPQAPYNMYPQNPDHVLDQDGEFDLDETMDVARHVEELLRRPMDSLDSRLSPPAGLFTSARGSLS

[5] = target: T2, Signal transducer and activator of transcription 5A (Homo sapiens); test: Inhibition of STAT5 phosphorylation in human MV4-11 cells assessed as reduction in STAT5 level at 1 uM measured for 6 hrs by Western blot analysis; assay type: cell-based
[6] = test system: SKNO-1; test: Effect on STAT6 level in human SKNO-1 cells upto 5 uM measured for 18 hrs by Western blot analysis; assay type: functional, cell-based
[7] = test system: SKNO-1; test: Effect on STAT1 level in human SKNO-1 cells upto 5 uM measured for 18 hrs by Western blot analysis; assay type: functional, cell-based
[8] = test system: MV4-11; test: Effect on STAT3 level in human MV4-11 cells upto 5 uM measured for 18 hrs by Western blot analysis; assay type: functional, cell-based
[9] = test system: SKNO-1; test: Effect on STAT2 level in human SKNO-1 cells upto 5 uM measured for 18 hrs by Western blot analysis; assay type: functional, cell-based
[10] = test system: SKNO-1; test: Effect on STAT3 level in human SKNO-1 cells upto 5 uM measured for 18 hrs by Western blot analysis; assay type: functional, cell-based
[11] = target: T3, Signal transducer and activator of transcription 5A (Homo sapiens, UniProt P42229); test: Binding affinity to N-terminal 6his-tagged human STAT5A (136 to 705 residues) expressed in Escherichia coli BL21-DE3 rosetta cells assessed as inhibition constant by FP assay
T3 sequence (P42229 whole entry): T2 sequence (whole entry)

[12] = test system: MV4-11; test: Effect on STAT1 level in human MV4-11 cells upto 5 uM measured for 18 hrs by Western blot analysis; assay type: functional, cell-based
[13] = test system: MV4-11; test: Effect on STAT2 level in human MV4-11 cells upto 5 uM measured for 18 hrs by Western blot analysis; assay type: functional, cell-based
[14] = target: T4, Signal transducer and activator of transcription 6 (Homo sapiens, UniProt P42226); test: Induction of STAT6 degradation in human SKNO-1 cells measured for 18 hrs by Western blot analysis; assay type: cell-based; conditions: read-out: DC50
T4 sequence (P42226 whole entry): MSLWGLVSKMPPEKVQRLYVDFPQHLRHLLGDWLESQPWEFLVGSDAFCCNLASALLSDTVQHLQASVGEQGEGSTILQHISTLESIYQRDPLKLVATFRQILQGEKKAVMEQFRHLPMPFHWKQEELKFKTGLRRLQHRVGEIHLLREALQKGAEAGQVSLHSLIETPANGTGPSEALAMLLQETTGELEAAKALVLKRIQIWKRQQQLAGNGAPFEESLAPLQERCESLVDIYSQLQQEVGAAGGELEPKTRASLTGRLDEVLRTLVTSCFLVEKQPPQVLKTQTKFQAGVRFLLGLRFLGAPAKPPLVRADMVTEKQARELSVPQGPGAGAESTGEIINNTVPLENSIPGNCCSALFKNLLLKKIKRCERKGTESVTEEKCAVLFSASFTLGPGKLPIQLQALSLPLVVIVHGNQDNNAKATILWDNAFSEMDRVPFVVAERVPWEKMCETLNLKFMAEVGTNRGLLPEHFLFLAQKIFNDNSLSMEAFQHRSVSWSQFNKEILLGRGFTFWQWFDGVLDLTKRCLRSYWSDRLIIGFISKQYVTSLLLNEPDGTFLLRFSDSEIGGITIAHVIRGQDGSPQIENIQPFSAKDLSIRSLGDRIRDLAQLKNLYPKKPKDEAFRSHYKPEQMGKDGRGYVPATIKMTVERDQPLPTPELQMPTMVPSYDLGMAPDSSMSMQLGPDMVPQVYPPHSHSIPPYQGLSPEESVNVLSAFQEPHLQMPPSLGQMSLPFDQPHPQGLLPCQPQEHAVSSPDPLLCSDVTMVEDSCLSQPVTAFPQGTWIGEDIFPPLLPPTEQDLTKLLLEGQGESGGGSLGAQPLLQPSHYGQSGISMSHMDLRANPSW

[15] = target: T3, Signal transducer and activator of transcription 5A; test: Induction of STAT5 degradation in human SKNO-1 cells measured for 18 hrs by Western blot analysis; assay type: cell-based
[16] = target: T2, Signal transducer and activator of transcription 5A (Homo sapiens); test: Induction of STAT5 degradation in human SKNO-1 cells assessed as maximal degradation at 0.05 to 5 uM measured for 18 hrs by Western blot analysis relative to control; assay type: cell-based; conditions: dose 0.05-5 µM
[17] = species: Homo sapiens; test: Selectivity ratio of DC50 for induction of STAT5 degradation in human SKNO-1 cells to DC50 for STAT6 degradation in human SKNO-1 cells; assay type: cell-based
[18] = target: Protein cereblon (Homo sapiens, UniProt Q96SW2); test: Binding affinity to GST-tagged wild type human CRBN assessed as inhibition constant by TR-FRET assay
Protein cereblon, sequence (Q96SW2 whole entry): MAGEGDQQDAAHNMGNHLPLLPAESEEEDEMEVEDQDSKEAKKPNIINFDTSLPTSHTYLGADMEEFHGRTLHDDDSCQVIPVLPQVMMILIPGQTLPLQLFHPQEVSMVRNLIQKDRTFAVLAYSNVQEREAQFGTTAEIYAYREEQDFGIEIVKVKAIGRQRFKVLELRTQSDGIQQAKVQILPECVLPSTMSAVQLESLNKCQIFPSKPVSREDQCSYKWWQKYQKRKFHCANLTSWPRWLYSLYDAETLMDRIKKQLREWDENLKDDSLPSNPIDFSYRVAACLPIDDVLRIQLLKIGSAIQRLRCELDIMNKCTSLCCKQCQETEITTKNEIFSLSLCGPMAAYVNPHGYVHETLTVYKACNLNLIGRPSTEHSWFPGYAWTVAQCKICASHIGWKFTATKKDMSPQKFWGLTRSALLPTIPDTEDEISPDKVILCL

Structure (SMILES)	Ki [1] [µM]	Activity [2]	Activity [3]	inhibition [4]	inhibition [5]	Activity [6]	Activity [7]	Activity [8]	Activity [9]	Activity [10]	Ki [11] [µM]	Activity [12]	Activity [13]	DC50 [14] [µM]	DC50 [15] [µM]	Emax [16] [%]	Ratio [17]	Ki [18] [µM]
CN(C)C(=O)CCN(C(=O)[C@@H]1CCCN1C(=O)[C@@H](NC(=O)c1cc2cc(C(F)(F)P(=O)(O)O)ccc2s1)C(C)(C)C)c1ccc(-c2nccs2)cc1	1	inactive	inactive	inactive	inactive	inactive	inactive	inactive	inactive	inactive	1	inactive	inactive	–	–	–	–	–
CC(C)(C)[C@H](NC(=O)c1cc2cc(C(F)(F)P(=O)(O)O)ccc2s1)C(=O)N1CCC[C@H]1C(=O)N(CCC(=O)NCCCC#Cc1cccc2c1CN(C1CCC(=O)NC1=O)C2=O)c1ccc(Br)cc1 (some centres undefined)	–	–	–	–	–	–	–	–	–	–	–	–	–	> 5	0.23	> 95	> 20	–
CN(CCCC#Cc1cccc2c1CN(C1CCC(=O)N(C)C1=O)C2=O)C(=O)CCN(C(=O)[C@@H]1CCCN1C(=O)[C@@H](NC(=O)c1cc2cc(C(F)(F)P(=O)(O)O)ccc2s1)C(C)(C)C)c1ccc(-c2nccs2)cc1 (some centres undefined)	–	inactive	inactive	inactive	inactive	inactive	inactive	inactive	inactive	inactive	–	inactive	inactive	–	–	–	–	> 5
